Test results taken from patent publication US10508281B2, “Disruption of ROCK1 gene leads to plants with improved traits” (priority 2014, dated 2019).
Residues, ends and D or L forms follow the SMILES beside them. *: point of attachment. Cbz = O=C(OCc1ccccc1)*

Key:
ROCK1 = biological target: T1, ROCK1 (Arabidopsis thaliana, UniProt Q8LES0); test: Nucleotide-sugar transport assay: uptake of radiolabeled nucleotide sugars into yeast microsomes expressing FLAG-ROCK1; format: biochemical; conditions: ER/Golgi microsomal vesicles from S. cerevisiae expressing FLAG-ROCK1 vs empty vector control
T1 construct: FLAG (N); made in house; host or cells: Saccharomyces cerevisiae BY4741 (microsomal vesicles)
T1 sequence (Q8LES0 1-325): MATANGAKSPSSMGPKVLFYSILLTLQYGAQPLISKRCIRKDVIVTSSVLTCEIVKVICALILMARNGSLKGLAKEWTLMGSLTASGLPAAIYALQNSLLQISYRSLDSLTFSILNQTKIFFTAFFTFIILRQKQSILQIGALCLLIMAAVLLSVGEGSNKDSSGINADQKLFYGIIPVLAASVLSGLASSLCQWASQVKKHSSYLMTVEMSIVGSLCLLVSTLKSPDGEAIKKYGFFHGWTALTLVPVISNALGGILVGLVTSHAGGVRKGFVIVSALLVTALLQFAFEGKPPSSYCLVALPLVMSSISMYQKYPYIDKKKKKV
Protocol: (B) Measurement of ROCK1-mediated uptake of radiolabeled nucleotide sugars into yeast microsomes expressing FLAG-ROCK1 or empty vector. Means±SEM (n=3; *, P<0.05, t test).
Nucleotide-sugar transport into Saccharomyces cerevisiae (BY4741) transformed with the construct pYEScupFLAGK-ROCK1 or the empty vector control was measured as described by Ashikov et al. (2005): “cultured cells were harvested by centrifugation (5 min at 1,500×g) and washed twice with ice-cold 10 mm NaN3. The weight of wet cells was measured, and cells were resuspended in zymolyase buffer (3 ml/g of cells; 50 mm potassium phosphate, pH 7.5; 1.4 m sorbitol; 10 mm NaN3 and 0.3% β-mercaptoethanol) containing 0.6 mg/ml of zymolyase-100T. The suspension was incubated for 20 min at 30° C. Spheroplasts were collected by centrifugation (5 min at 1,000×g) and resuspended in lysis buffer (4 ml/g of cells; 10 mm Hepes-Tris, pH 7.4; 0.8 m sorbitol; 1 mm EDTA) containing complete EDTA-free protease inhibitor mixture (Roche Applied Science). After homogenization with 10 strokes in a Dounce homogenizer, the lysate was centrifuged (5 min, 1,500×g) to remove unlysed cells and debris. Endoplasmic reticulum- and Golgi-rich fractions were then obtained by centrifugation at 10,000×g for 10 min (endoplasmic reticulum) and 100,000×g for 1 h (Golgi). The 100,000×g pellet was carefully resuspended in lysis buffer (0.8 ml/g of cells), and aliquots of 100 μl were snap-frozen and kept at −80° C. Protein concentrations were determined using the BCA™ kit (Pierce). For transport assay reactions, equal volumes (50 μl of each) of 2 mm radioactive nucleotide sugar (2,000-4,000 dpm/pmol) in assay buffer (10 mm Tris-HCl, pH 7.0; 0.8 m sorbitol; 2 mm MgCl2) and vesicle preparation (equivalent to 75-100 μg of protein) were incubated for 30 s at 30° C. Reactions were stopped by dilution with 1 ml of assay buffer containing 1 μm respective cold nucleotide sugar. The separation of vesicles and nucleotide sugars was achieved by filtration trough nitrocellulose filter (MF™ membrane filters Millipore, Bedford, Mass.). Filters were washed three times with 2 ml of ice-cold assay buffer containing the corresponding cold nucleotide sugar at a concentration of 1 μm, and radioactivity associated with the vesicular fraction was measured by liquid scintillation in a LS 5000CE counter (Beckman Coulter). Golgi vesicles from yeast cells transformed with an empty vector were used to measure endogenous transport.”
To directly test the transport specificity of ROCK1, a FLAG-tagged ROCK1 protein was expressed in Saccharomyces cerevisiae, which has, with the exception of GDP-Man, a low background for most nucleotide sugar transport activities and is commonly used as a heterologous test system for NSTs. […]

ipt3,5,7 = test: Restoration of growth of ipt3,5,7 mutant plants by CKX inhibitor application; format: in vivo, Arabidopsis thaliana; conditions: shoots sprayed with 10 μM INCYDE every 3 days; compared with suppression by rock1-1
Protocol: If not otherwise denoted, Arabidopsis thaliana Columbia-0 was used as the wild type. The T-DNA insertion lines rock1-2 (SALK_001259) and rock1-3 (901C01) were used. The following lines were described previously: 35S:CKX1-11, 35S:CKX2-9, 35S:CKX3-9, 35S:CKX7-GFP-26, ahk2-5, ahk3-7, cre1-2, atipt1, atipt3-2, atipt5-2, atipt7-1, cgl1 C6 (cgl1-2) and ARR5:GUS. Plants were grown in vitro on half-strength Murashige and Skoog (MS) medium containing 10 g/L sucrose, 0.5 g/L MES and 8 g/L phytagel. For analysis of root growth, 12 g/L phytagel and cytokinin or DMSO as solvent control were added to the medium. Plants were grown under long day conditions (16 h light/8 h dark; 21/18° C.) in vitro or in the green house. Shoots of soil grown plants were sprayed with 10 μM INCYDE and 0.01% Silwet L-77 every 3 days starting 3 days after germination. The binary vector constructs were transformed into Arabidopsis plants by Agrobacterium tumefaciens (strain GV3101:pMP90) mediated floral dip method.
To gain information about the specificity of rock1 in suppressing CKX overexpression phenotypes, rock1-1 was introgressed into 35S:CKX2, 35S:CKX3 and 35S:CKX7 plants.

myc-CKX1 = myc-CKX1 level in seedlings after proteasome inhibitor treatment (immunoblotting and densitometry); format: in vivo, Arabidopsis thaliana; conditions: seedlings treated with 100 μM MG132
Protocol: FIG. 4. ROCK1 regulates ERQC and CKX protein stability. (A) N-glycosylation status of myc-CKX1 protein in wild-type and rock1 seedlings. Protein extracts were treated with PNGase F or EndoH and the size of myc-CKX1 was compared to mock-treated control by SDS-PAGE and immunoblot with anti-myc antibody. (B) The loss of GnT-I activity in cgl1 mutants has no influence on the shoot phenotype of 35S:CKX1 plants (21 dag). (C) The level of myc-CKX1 is decreased in rock1 compared to wild type. Total protein extracts were analyzed by immunoblot with anti-myc antibody. Coomassie blue staining of Rubisco large subunit (RbcL) was used as loading control. Relative densitometric analysis of the myc-CKX1 signal is shown. […] Protein extracts were prepared from 7-d-old seedlings treated with mock or 100 μM CHX for indicated times and analyzed by immunoblotting. […] Seedlings were treated with 100 μM MG132 and myc-CKX1 analyzed by immunoblotting and densitometry. […] (F) Quantitative real-time PCR analysis of UPR genes in shoots of soil-grown seedlings 9 dag measured by. […]
Proteins were extracted and the concentration determined as described for the CKX activity assay. […] Intensities were normalized to the loading control and calculated relative to wild type samples. […]
To test CKX1 turnover, we analyzed myc-CKX1 levels in the presence of the translation inhibitor cycloheximide (CHX). […]

Row | uptake in vesicles expressing ROCK1, increased in comparison to the control (ROCK1) [fold] | Compound | relative transport in ROCK1 microsomes versus empty vector control (in words) (ROCK1) | further results
1 | 3 | CC(=O)N[C@H]1[C@@H](OP(=O)(O)OP(=O)(O)OC[C@H]2O[C@@H](n3ccc(=O)[nH]c3=O)[C@H](O)[C@@H]2O)O[C@H](CO)[C@@H](O)[C@@H]1O [UDP-GlcNAc, UDP-N-acetylglucosamine] | – | –
2 | – | COc1cccc(Nc2nc(Cl)nc3nc[nH]c23)c1 [chemical inhibitor of CKX activity] | – | restoration of ipt3,5,7 growth (ipt3,5,7): comparable restoration of ipt3,5,7 growth
3 | 7 | CC(=O)N[C@H]1[C@@H](OP(=O)(O)OP(=O)(O)OC[C@H]2O[C@@H](n3ccc(=O)[nH]c3=O)[C@H](O)[C@@H]2O)O[C@H](CO)[C@H](O)[C@@H]1O [UDP-GalNAc, UDP-N-acetylgalactosamine] | – | –
4 | – | Nc1nc2c(ncn2[C@@H]2O[C@H](COP(=O)(O)OP(=O)(O)O[C@H]3O[C@H](CO)[C@@H](O)[C@H](O)[C@@H]3O)[C@@H](O)[C@H]2O)c(=O)[nH]1 [GDP-Man] | lowered | –
5 | – | CC1OC(OP(=O)(O)OP(=O)(O)OCC2OC(n3cnc4c(=O)[nH]c(N)nc43)C(O)C2O)C(O)C(O)C1O (stereo not shown) [GDP-Fuc] | lowered | –
6 | – | CC(C)C[C@@H](C=O)NC(=O)[C@H](CC(C)C)NC(=O)[C@H](CC(C)C)NC(=O)OCc1ccccc1 [MG132] (Cbz-Leu-Leu-Leu-aldehyde) | – | effect on myc-CKX1 levels in rock1 background (myc-CKX1; rock1 background): strongly stabilized myc-CKX1 levels; effect on level of myc-CKX1 in wild type (myc-CKX1; wild type background): increased the level of myc-CKX1
